# Test results taken from patent publication US20100210635A1, “RENIN INHIBITORS” (Takeda Pharmaceutical Company Limited, priority 2006, published 2010).
# Molecular target: T1, Recombinant human renin (Homo sapiens, UniProt P00797)
# T1 construct: isolate the active form (residues 67-406); made in house; host or cells: FreeStyle 293-F cells (transient expression of pcDNA3.1(+)/hREN)
# T1 sequence (P00797 67-406): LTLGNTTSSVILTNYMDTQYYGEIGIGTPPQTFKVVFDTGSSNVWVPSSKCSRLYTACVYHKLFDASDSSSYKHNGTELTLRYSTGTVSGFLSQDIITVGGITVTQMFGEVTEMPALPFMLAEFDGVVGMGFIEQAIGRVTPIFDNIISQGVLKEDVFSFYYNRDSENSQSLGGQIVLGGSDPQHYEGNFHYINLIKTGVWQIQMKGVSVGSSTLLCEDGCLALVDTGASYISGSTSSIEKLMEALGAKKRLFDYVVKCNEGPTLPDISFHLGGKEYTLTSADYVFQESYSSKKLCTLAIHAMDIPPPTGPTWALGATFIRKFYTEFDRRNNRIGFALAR
# Assay: In vitro enzymatic activity assay of Renin inhibitors (fluorescence, QXL520/HiLyteFluo488 peptide substrate)
# Type: biochemical
# Conditions: not given
# Text: Test compounds in varying concentrations may be reacted with recombinant human renin in the presence of substrate, e.g., QXL520-γ-Abu-Ile-His-Pro-Phe-His-Leu-Val-Ile-His-Thr-Lys (HiLyteFluo488)-Arg-OH (Anaspec, San Jose, Calif.). The reaction can be followed kinetically using fluorescence (excitation λ=485 nm; emission λ=538 nm). Inhibition constants (IC50) may be calculated by non-linear curve fitting of the compound concentrations and fluorescence intensities to the standard IC50 equation.
# Solutions of test compounds in varying concentrations (<2 mM final concentration) are prepared in dimethyl sulfoxide (DMSO) and then diluted into assay buffer comprising 50 mM Hepes, 1 mM EDTA, 1 mM DTT, 0.1 mg/ml BSA, 0.01% Brij35, pH 7.4. Alternatively, the assay can be performed with a high BSA concentration, wherein the buffer contains an additional 2% BSA.
# Recombinant human renin (3 nM final concentration) is added to the dilutions and pre-incubated with the compounds for 10 minutes at 37° C. As described in Examples A-C above, human Renin can be obtained by expressing preprorenin (residue 1-406) in mammalian cells, treating the prorenin (residues 24-406) contained in the culture supernatant with trypsin, and isolate the active form (residues 67-406). After pre-incubation, the reaction is initiated with 1 μM of substrate QXL520-γ-Abu-Ile-His-Pro-Phe-His-Leu-Val-Ile-His-Thr-Lys (HiLyteFluo488)-Arg-OH (Anaspec, San Jose, Calif.). The final DMSO in the assay is 5%. The total volume of the reaction mixture is 20 μL, which can be placed on Greiner 384-well small volume plates.
# Renin activity may be determined via fluorescence (excitation λ=485 nm; emission λ=538 nm), e.g., on a Molecular Devices SPECTROmax GEMINI XPS. The fluorescence intensity is determined upon the addition of substrate and determined again after incubation at 37° C. for one hour. The fluorescence intensity of a blank (no inhibition) using vehicle alone is also determined. Renin activity is linearly proportional to the change in fluorescence observed (final−initial).
# The percent inhibition of Renin at a given compound concentration is defined as:
# 100%×[1−(Fcompound/Fblank)]
# where Fcompound is the observed fluorescence at a given concentration of test compound and Fblank is the observed fluorescence in the presence of vehicle alone.
# The pIC50 value (negative log of the molar concentration of the compound that produces 50% inhibition) of a test compound is calculated by non-linear least squares curve fitting of the equation: […]
# to percent inhibition versus compound concentration. The 50% inhibitory concentration (IC50) of a test compound is calculated by raising 10 to the negative pIC50 (10^−pIC50).
row,SMILES,IC50
1,"CN1CCN(C(=O)Oc2ccc(C[C@@H]3CNCCN3C(=O)CCc3ccccc3Oc3ccccc3)cc2)CC1 [Example 72, (R)-4-((1-(3-(2-phenoxyphenyl)propanoyl)piperazin-2-yl)methyl)-phenyl 4-methylpiperazine-1-carboxylate]",500 to 5000 nM
2,"O=C(Oc1ccc(C[C@@H]2CNCCN2C(=O)CCc2ccccc2Oc2ccccc2)cc1)N1CCOCC1 [Example 73, (R)-4-((1-(3-(2-phenoxyphenyl)propanoyl)piperazin-2-yl)methyl)-phenyl morpholine-4-carboxylate]",500 to 5000 nM
3,"CCN(CC)C(=O)Oc1ccc(C[C@@H]2CNCCN2C(=O)CCc2ccccc2Oc2ccccc2)cc1 [Example 74, (R)-4-((1-(3-(2-phenoxyphenyl)propanoyl)piperazin-2-yl)methyl)-phenyl diethylcarbamate]",500 to 5000 nM
4,"CC(=O)NCCc1ccccc1Oc1ccccc1CCC(=O)N1CCNC[C@H]1Cc1ccc(OC(=O)N2CCOCC2)cc1 [Example 80, (R)-4-((1-(3-(2-(2-(2-acetamidoethyl)phenoxy)phenyl)propanoyl)piperazin-2-yl)methyl)phenyl morpholine-4-carboxylate]",500 to 5000 nM

# Same assay, conditions: recombinant human renin 3 nM, 1 μM substrate, 37° C., pH 7.4; values given as ranges; read-out: IC50 of Exemplified Compounds Against Renin
row,SMILES,IC50
1,"COC(=O)CCc1ccccc1Oc1ccccc1CCC(=O)N1CCNC[C@H]1Cc1ccccc1 [Example 67, (R)-methyl 3-(2-(2-(3-(2-benzylpiperazin-1-yl)-3-oxopropyl)phenoxy)phenyl)propanoate]",< 500 nM
2,"O=C(CCc1ccccc1Oc1ccccc1)N1CCNC[C@H]1Cc1ccc(O)cc1 [Example 68, (R)-1-(2-(4-hydroxybenzyl)piperazin-1-yl)-3-(2-phenoxyphenyl)-propan-1-one]",< 500 nM
3,"COC(=O)COc1ccc(C[C@@H]2CNCCN2C(=O)CCc2ccccc2Oc2ccccc2)cc1 [Example 69, (R)-methyl 2-(4-((1-(3-(2-phenoxyphenyl)propanoyl)piperazin-2-yl)methyl)phenoxy)acetate]",500 to 5000 nM
4,"NC(=O)COc1ccc(C[C@@H]2CNCCN2C(=O)CCc2ccccc2Oc2ccccc2)cc1 [Example 70, (R)-2-(4-((1-(3-(2-phenoxyphenyl)propanoyl)piperazin-2-yl)methyl)phenoxy)acetamide]",< 500 nM
5,"CN(C)C(=O)COc1ccc(C[C@@H]2CNCCN2C(=O)CCc2ccccc2Oc2ccccc2)cc1 [Example 71, (R)—N,N-dimethyl-2-(4-((1-(3-(2-phenoxyphenyl)propanoyl)piperazin-2-yl)methyl)phenoxy)acetamide]",500 to 5000 nM
6,"COCCCOc1ccccc1CCC(=O)N1CCNC[C@H]1Cc1ccccc1 [Example 75, (R)-1-(2-benzylpiperazin-1-yl)-3-(2-(3-methoxypropoxy)phenyl)-propan-1-one]",500 to 5000 nM
7,"O=C(CCc1ccccc1OCCCO)N1CCNC[C@H]1Cc1ccccc1 [Example 76, (R)-1-(2-benzylpiperazin-1-yl)-3-(2-(3-hydroxypropoxy)phenyl)-propan-1-one]",500 to 5000 nM
8,"COCCOCCCOc1ccccc1CCC(=O)N1CCNC[C@H]1Cc1ccccc1 [Example 77, (R)-1-(2-benzylpiperazin-1-yl)-3-(2-(3-(2-methoxyethoxy)propoxy)phenyl)propan-1-one]",500 to 5000 nM
9,"CCC(=O)NCCc1ccccc1Oc1ccccc1CCC(=O)N1CCNC[C@H]1Cc1ccccc1 [Example 78, (R)—N-(2-(2-(3-(2-benzylpiperazin-1-yl)-3-oxopropyl)phenoxy)phenethyl)propionamide]",< 500 nM
10,"CC(=O)NCCc1ccccc1Oc1ccccc1CCC(=O)N1CCNC[C@H]1Cc1ccc(O)cc1 [Example 79, (R)—N-(2-(2-(3-(2-(4-hydroxybenzyl)piperazin-1-yl)-3-oxopropyl)phenoxy)phenethyl)acetamide]",< 500 nM
11,"CC(=O)NCCc1ccccc1Oc1ccccc1CCC(=O)N1CCNC[C@H]1Cc1ccc(OCC(N)=O)cc1 [Example 81, (R)-2-(4-((1-(3-(2-(2-(2-acetamidoethyl)phenoxy)phenyl)propanoyl)piperazin-2-yl)methyl)phenoxy)acetamide]",< 500 nM
12,"O=C(O)CCc1ccccc1Oc1ccccc1CCC(=O)N1CCNC[C@H]1Cc1ccccc1 [Example 82, (R)-3-(2-(2-(3-(2-Benzylpiperazin-1-yl)-3-oxopropyl)phenoxy)phenyl)propanoic acid]",500 to 5000 nM
13,"NC(=O)CCc1ccccc1Oc1ccccc1CCC(=O)N1CCNC[C@H]1Cc1ccccc1 [Example 83, (R)-3-(2-(2-(3-(2-benzylpiperazin-1-yl)-3-oxopropyl)phenoxy)phenyl)propanamide]",< 500 nM
14,"CC(=O)NCCc1ccccc1Cc1ccccc1CCC(=O)N1CCNC[C@H]1Cc1ccccc1 [Example 84, (R)—N-(2-(2-(3-(2-benzylpiperazin-1-yl)-3-oxopropyl)benzyl)phenethyl)acetamide]",< 500 nM
15,"O=C(CCc1ccccc1Oc1ccccc1)N1CCNC[C@H]1Cc1ccc(OCc2nnn[nH]2)cc1 [Example 85, (R)-1-(2-(4-((1H-tetrazol-5-yl)methoxy)benzyl)piperazin-1-yl)-3-(2-phenoxyphenyl)propan-1-one]",< 500 nM
16,"O=C(O)COc1ccc(C[C@@H]2CNCCN2C(=O)CCc2ccccc2Oc2ccccc2)cc1 [Example 86, (R)-2-(4-((1-(3-(2-phenoxyphenyl)propanoyl)piperazin-2-yl)methyl)phenoxy)acetic acid]",500 to 5000 nM
17,"O=C(CCc1ccccc1Oc1ccccc1CO)N1CCNC[C@H]1Cc1ccccc1 [Example 87, (R)-1-(2-benzylpiperazin-1-yl)-3-(2-(2-(hydroxymethyl)phenoxy)phenyl)propan-1-one]",< 500 nM
18,"CC(=O)NCCc1ccccc1Cc1ccccc1CCC(=O)N1CCNC[C@H]1Cc1ccc(O)cc1 [Example 88, (R)—N-(2-(2-(3-(2-(4-hydroxybenzyl)piperazin-1-yl)-3-oxopropyl)benzyl)phenethyl)acetamide]",< 500 nM
19,"CC(=O)NCCc1ccccc1Cc1ccccc1CCC(=O)N1CCNC[C@H]1Cc1ccc(OCC(N)=O)cc1 [Example 89, (R)-2-(4-((1-(3-(2-(2-(2-acetamidoethyl)benzyl)phenyl)propanoyl)piperazin-2-yl)methyl)phenoxy)acetamide]",< 500 nM
20,"CC(=O)NCCc1ccccc1Cc1ccccc1CCC(=O)N1CCNC[C@H]1Cc1ccc(OCC(=O)O)cc1 [Example 90, (R)-2-(4-((1-(3-(2-(2-(2-acetamidoethyl)benzyl)phenyl)propanoyl)piperazin-2-yl)methyl)phenoxy)acetic acid]",< 500 nM
21,"CC(=O)NCCc1ccccc1Cc1ccccc1CCC(=O)N1CCNC[C@H]1Cc1ccc(OCC(=O)NS(C)(=O)=O)cc1 [Example 91, (R)-2-(4-((1-(3-(2-(2-(2-acetamidoethyl)benzyl)phenyl)propanoyl)piperazin-2-yl)methyl)phenoxy)-N-(methylsulfonyl)acetamide]",< 500 nM
22,"COC(=O)COc1ccc(C[C@@H]2CNCCN2C(=O)CCc2ccccc2Cc2ccccc2CCNC(C)=O)cc1 [Example 92, (R)-Methyl 2-(4-((1-(3-(2-(2-(2-acetamidoethyl)benzyl)phenyl)propanoyl)piperazin-2-yl)methyl)phenoxy)acetate]",< 500 nM
23,"CC(=O)NCCc1ccccc1Cc1ccccc1CCC(=O)N1CCNC[C@H]1Cc1ccc(C(=O)NS(C)(=O)=O)cc1 [Example 93, (R)-4-((1-(3-(2-(2-(2-acetamidoethyl)benzyl)phenyl)propanoyl)piperazin-2-yl)methyl)-N-(methylsulfonyl)benzamide]",< 500 nM
24,"CC(=O)NCCc1ccccc1Cc1ccccc1CCC(=O)N1CCNC[C@H]1Cc1ccc(-c2nnn[nH]2)cc1 [Example 94, (R)—N-(2-(2-(3-(2-(4-(1H-tetrazol-5-yl)benzyl)piperazin-1-yl)-3-oxopropyl)benzyl)phenethyl)acetamide]",< 500 nM
